Test results taken from ChEMBL document CHEMBL1909046, “DrugMatrix in vitro pharmacology data”.
pIC50, pKi: −log10 of the molar value.

Columns and labels:
[1] = target: Cannabinoid receptor 1 (Homo sapiens, UniProt P21554); format: cell membranes, Chem-1, Membrane; conditions: chem-1; further: in other assays of this panel Not Active means under 50% inhibition at 10 µM
[2] = target: T1, C-C chemokine receptor type 4 (Homo sapiens, UniProt P51679); format: cell membranes, Membrane; conditions: chem-1; further: in other assays of this panel Not Active means under 50% inhibition at 10 µM
T1 sequence (P51679 whole entry): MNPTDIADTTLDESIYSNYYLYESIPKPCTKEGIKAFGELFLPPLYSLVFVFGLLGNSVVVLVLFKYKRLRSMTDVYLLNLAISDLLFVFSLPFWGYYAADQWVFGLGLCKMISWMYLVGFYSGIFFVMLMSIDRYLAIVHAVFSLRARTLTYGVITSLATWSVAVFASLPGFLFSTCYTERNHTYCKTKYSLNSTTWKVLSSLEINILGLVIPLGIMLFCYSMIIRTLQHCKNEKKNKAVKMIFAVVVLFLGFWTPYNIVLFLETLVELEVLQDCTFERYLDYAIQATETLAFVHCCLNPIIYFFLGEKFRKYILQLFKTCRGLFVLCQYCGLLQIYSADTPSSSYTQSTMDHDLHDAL

[3] = target: Mitogen-activated protein kinase 1 (Homo sapiens, UniProt P28482); assay: DRUGMATRIX: Protein Serine/Threonine Kinase, ERK2 enzyme inhibition (substrate: Myelin Basic Protein); set-up: species or system Escherichia coli; conditions: Not Active = under 50% inhibition at 10 µM
Mitogen-activated protein kinase 1, sequence (P28482 whole entry): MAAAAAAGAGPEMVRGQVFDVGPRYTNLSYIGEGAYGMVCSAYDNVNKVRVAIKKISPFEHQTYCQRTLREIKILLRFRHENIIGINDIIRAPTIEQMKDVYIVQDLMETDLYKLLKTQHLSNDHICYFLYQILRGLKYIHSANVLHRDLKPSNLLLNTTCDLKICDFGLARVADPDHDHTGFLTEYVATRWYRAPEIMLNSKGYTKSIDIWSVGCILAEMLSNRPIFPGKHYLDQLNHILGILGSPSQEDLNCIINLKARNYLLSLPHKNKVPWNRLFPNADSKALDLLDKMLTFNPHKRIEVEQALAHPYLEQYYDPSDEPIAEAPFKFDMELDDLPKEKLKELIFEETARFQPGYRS

[4] = target: T2, Muscarinic acetylcholine receptor M2 (Homo sapiens, UniProt P08172); format: cell membranes, CHO-K1, Membrane; conditions: for IC50: cho-k1; on all read-outs here: in other assays of this panel Not Active means under 50% inhibition at 10 µM
T2 sequence (P08172 whole entry): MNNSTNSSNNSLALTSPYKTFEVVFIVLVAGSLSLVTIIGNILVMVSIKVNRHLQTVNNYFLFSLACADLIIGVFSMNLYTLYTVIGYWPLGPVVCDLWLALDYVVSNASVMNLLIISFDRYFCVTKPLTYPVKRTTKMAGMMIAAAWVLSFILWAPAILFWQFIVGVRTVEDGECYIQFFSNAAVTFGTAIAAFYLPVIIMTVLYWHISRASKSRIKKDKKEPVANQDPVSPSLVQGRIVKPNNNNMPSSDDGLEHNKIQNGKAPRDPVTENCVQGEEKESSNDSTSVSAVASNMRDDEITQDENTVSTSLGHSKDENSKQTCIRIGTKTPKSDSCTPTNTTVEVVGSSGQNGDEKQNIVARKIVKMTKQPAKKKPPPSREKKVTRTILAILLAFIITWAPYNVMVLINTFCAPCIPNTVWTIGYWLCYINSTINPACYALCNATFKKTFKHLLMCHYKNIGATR

[5] = DRUGMATRIX: GABAA, Muscimol, Central radioligand binding (ligand: [3H] Muscimol); format: cell membranes, Rattus norvegicus, Wistar, Brain, Membrane; conditions: Not Active = under 50% inhibition at 10 µM
[6] = target: Cytochrome P450 2D6 (Homo sapiens, UniProt P10635); conditions: bti-tn-5b1-4; further: in other assays of this panel Not Active means under 50% inhibition at 10 µM
Cytochrome P450 2D6, sequence (P10635 whole entry): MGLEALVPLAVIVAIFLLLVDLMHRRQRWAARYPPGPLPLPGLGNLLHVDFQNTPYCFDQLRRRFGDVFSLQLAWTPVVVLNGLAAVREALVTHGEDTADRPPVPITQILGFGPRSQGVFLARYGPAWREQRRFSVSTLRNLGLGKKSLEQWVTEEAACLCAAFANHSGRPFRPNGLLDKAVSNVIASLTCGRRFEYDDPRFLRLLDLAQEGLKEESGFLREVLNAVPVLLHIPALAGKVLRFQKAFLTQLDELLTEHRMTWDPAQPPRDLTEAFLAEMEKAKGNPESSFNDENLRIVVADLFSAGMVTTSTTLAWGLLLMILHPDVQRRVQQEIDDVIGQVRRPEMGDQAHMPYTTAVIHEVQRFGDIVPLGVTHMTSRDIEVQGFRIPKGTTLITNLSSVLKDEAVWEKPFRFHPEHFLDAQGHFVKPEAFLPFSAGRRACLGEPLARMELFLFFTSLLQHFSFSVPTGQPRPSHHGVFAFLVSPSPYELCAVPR

[7] = target: T3, Cytochrome P450 1A2 (Homo sapiens, UniProt P05177); conditions: bti-tn-5b1-4; further: in other assays of this panel Not Active means under 50% inhibition at 10 µM
T3 sequence (P05177 whole entry): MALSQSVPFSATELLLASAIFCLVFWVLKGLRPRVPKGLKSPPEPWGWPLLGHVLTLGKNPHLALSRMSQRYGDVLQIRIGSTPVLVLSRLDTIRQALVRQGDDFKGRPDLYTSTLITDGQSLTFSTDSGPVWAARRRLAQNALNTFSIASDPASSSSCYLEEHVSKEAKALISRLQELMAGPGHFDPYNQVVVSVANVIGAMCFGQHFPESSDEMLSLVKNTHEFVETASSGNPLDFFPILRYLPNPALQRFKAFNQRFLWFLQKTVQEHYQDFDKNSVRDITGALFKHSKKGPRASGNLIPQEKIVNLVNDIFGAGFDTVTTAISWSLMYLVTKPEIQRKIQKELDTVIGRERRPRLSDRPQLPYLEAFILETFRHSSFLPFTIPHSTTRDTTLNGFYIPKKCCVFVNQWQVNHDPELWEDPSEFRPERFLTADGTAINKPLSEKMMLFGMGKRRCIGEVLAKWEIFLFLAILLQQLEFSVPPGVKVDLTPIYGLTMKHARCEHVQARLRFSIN

Cannabinoid receptor 1, sequence (P21554 whole entry): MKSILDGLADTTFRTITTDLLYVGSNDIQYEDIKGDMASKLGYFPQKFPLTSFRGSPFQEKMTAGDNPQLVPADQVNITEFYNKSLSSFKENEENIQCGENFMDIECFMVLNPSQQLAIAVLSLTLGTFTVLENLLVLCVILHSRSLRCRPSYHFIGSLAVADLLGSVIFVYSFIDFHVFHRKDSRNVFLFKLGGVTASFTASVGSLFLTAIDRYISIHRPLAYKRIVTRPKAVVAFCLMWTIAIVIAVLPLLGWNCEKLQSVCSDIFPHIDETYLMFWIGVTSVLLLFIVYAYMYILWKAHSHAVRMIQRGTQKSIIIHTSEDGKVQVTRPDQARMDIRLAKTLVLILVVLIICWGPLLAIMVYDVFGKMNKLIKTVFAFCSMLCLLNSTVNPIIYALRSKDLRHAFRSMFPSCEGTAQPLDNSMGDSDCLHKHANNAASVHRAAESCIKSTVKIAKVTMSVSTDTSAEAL

SMILES	IC50 [1]	IC50 [2]	IC50 [3]	IC50 [4]	IC50 [5]	Ki [5]	IC50 [6]	Ki [6]	IC50 [7]	Ki [7]	pIC50 ([4]; read-out: IC50)	pKi ([4]; read-out: Ki)
O=C(N[C@H](CO)[C@H](O)c1ccc([N+](=O)[O-])cc1)C(Cl)Cl [CHLORAMPHENICOL]	Not Active	Not Active	Not Active	Not Active	Not Active	Not Active						
Cn1c(=O)c2c(ncn2CC2OCCO2)n(C)c1=O [DOXOFYLLINE]	Not Active	Not Active	Not Active	Not Active	Not Active	Not Active	Not Active	Not Active	Not Active	Not Active		
CCC1=C[C@@H]2CN(C1)Cc1c([nH]c3ccccc13)[C@@](C(=O)OC)(c1cc3c(cc1OC)N(C)[C@H]1[C@@](O)(C(=O)OC)[C@H](OC(C)=O)[C@]4(CC)C=CCN5CC[C@]31[C@@H]54)C2 [VINORELBINE]	Not Active	Not Active	Not Active	Not Active	Not Active	Not Active	Not Active	Not Active	Not Active	Not Active		
CC(C(=O)O)c1cccc(C(=O)c2ccccc2)c1 (centres undefined) [KETOPROFEN]	Not Active	Not Active	Not Active	Not Active	Not Active	Not Active	Not Active	Not Active	Not Active	Not Active		
O=c1ccc2ccccc2o1 [COUMARIN]	Not Active	Not Active	Not Active	Not Active	Not Active	Not Active	Not Active	Not Active	Not Active	Not Active		
CC1(C)O[C@@H]2C[C@H]3[C@@H]4C[C@H](F)C5=CC(=O)C=C[C@]5(C)[C@H]4[C@@H](O)C[C@]3(C)[C@]2(C(=O)CO)O1 [FLUNISOLIDE]	Not Active	Not Active	Not Active	Not Active	Not Active	Not Active	Not Active	Not Active	Not Active	Not Active		
CC1(C)O[C@@H]2C[C@H]3[C@@H]4C[C@H](F)C5=CC(=O)C=C[C@]5(C)[C@@]4(F)[C@@H](O)C[C@]3(C)[C@]2(C(=O)CO)O1 [FLUOCINOLONE ACETONIDE]	Not Active	Not Active	Not Active	Not Active	Not Active	Not Active	Not Active	Not Active	Not Active	Not Active		
N=C(Nc1ccccc1)Nc1ccccc1	Not Active	Not Active	Not Active	Not Active	Not Active	Not Active			Not Active	Not Active		
CC[C@@H](CO)NCCN[C@@H](CC)CO [ETHAMBUTOL]	Not Active	Not Active	Not Active	Not Active	Not Active	Not Active	Not Active	Not Active	Not Active	Not Active		
O=NN(CCCl)C(=O)NCCCl [CARMUSTINE]	Not Active	Not Active	Not Active	Not Active	Not Active	Not Active						
NC(=O)NO [HYDROXYUREA]	Not Active	Not Active	Not Active	Not Active	Not Active	Not Active						
C/C=C/C[C@@H](C)[C@@H](O)[C@H]1C(=O)N[C@@H](CC)C(=O)N(C)CC(=O)N(C)[C@@H](CC(C)C)C(=O)N[C@@H](C(C)C)C(=O)N(C)[C@@H](CC(C)C)C(=O)N[C@@H](C)C(=O)N[C@H](C)C(=O)N(C)[C@@H](CC(C)C)C(=O)N(C)[C@@H](CC(C)C)C(=O)N(C)[C@@H](C(C)C)C(=O)N1C [CYCLOSPORINE]	Not Active	Not Active	Not Active	Not Active	Not Active	Not Active						
CCOC(=O)C(C)(C)Oc1ccc(Cl)cc1 [CLOFIBRATE]	Not Active	Not Active	Not Active	Not Active	Not Active	Not Active						
COC(=O)C1=C(C)NC(C)=C(C(=O)OCC(C)C)C1c1ccccc1[N+](=O)[O-] (centres undefined) [NISOLDIPINE]	Not Active	Not Active	Not Active	Not Active	Not Active	Not Active						
C[C@@H]1C[C@@H]([C@H](O)CC2CC(=O)NC(=O)C2)C(=O)[C@@H](C)C1 [CYCLOHEXIMIDE]	Not Active	Not Active	Not Active	Not Active	Not Active	Not Active						
CCN1CC(CCN2CCOCC2)C(c2ccccc2)(c2ccccc2)C1=O (centres undefined) [DOXAPRAM]	Not Active	Not Active	Not Active	Not Active	Not Active	Not Active			Not Active	Not Active		
OC(CCN1CCCCC1)(c1ccccc1)C1CCCCC1 (centres undefined) [TRIHEXYPHENIDYL]	Not Active	Not Active	Not Active		Not Active	Not Active			Not Active	Not Active		
CN(C)c1ccc(C(=C2C=CC(=[N+](C)C)C=C2)c2ccc(N(C)C)cc2)cc1.[Cl-] [GENTIAN VIOLET]	Not Active	Not Active	Not Active		Not Active	Not Active			Not Active	Not Active	5.84	6.29
CCCCN1CCCCC1C(=O)Nc1c(C)cccc1C.Cl (centres undefined) [BUPIVACAINE HYDROCHLORIDE]	Not Active	Not Active	Not Active	Not Active	Not Active	Not Active			Not Active	Not Active		
CC(=O)Nc1cccc(O)c1 [METACETAMOL]	Not Active	Not Active	Not Active	Not Active	Not Active	Not Active	Not Active	Not Active				
CCn1cc(C(=O)O)c(=O)c2cc(F)c(N3CCN(C)CC3)cc21 [PEFLOXACIN]	Not Active	Not Active	Not Active	Not Active	Not Active	Not Active						
S=C=Nc1cccc2ccccc12 [1-NAPHTHYLISOTHIOCYANATE]	Not Active	Not Active	Not Active	Not Active	Not Active	Not Active	Not Active	Not Active				
CC1=C(C(=O)O)N2C(=O)[C@@H](NC(=O)[C@H](N)c3ccccc3)[C@H]2SC1 [CEPHALEXIN ANHYDROUS]	Not Active	Not Active	Not Active	Not Active	Not Active	Not Active						
COc1ccc2c(c1)[C@]13CCCC[C@@H]1[C@H](C2)N(C)CC3 [DEXTROMETHORPHAN]	Not Active	Not Active	Not Active	Not Active	Not Active	Not Active	Not Active	Not Active				
COc1ccc2cc([C@H](C)C(=O)O)ccc2c1 [NAPROXEN]	Not Active	Not Active	Not Active	Not Active	Not Active	Not Active						
